Reference: paper PMC4730870 (Journal of natural products, 2015)

System: peritoneal macrophages
Assay: In vitro mammalian toxicity, MTT method
Format: cell-based, BALB/c mice
Conditions: CC50 against macrophages/IC50 against amastigotes

In the case of `C=CCc1ccc(Oc2cc([C@H](O)C=C)cc(OC)c2O)c(OC)c1` [Compound 3, 1-[(7R)-Hydroxy-8-propenyl]-3-[3′-methoxy-1′-(8′-propenyl)-phenoxy]-4-hydroxy-5-methoxybenzene], the “SI selectivity index (CC50 mammalian cells/IC50 Leishmania amastigotes)” value is reported as >2.9.
